A value given as a limit tells only on which side of the number the result lay.

In general, AC50 refers to the midpoint of the concentration-response curve, whichever way the signal moves.

The target of this assay is PKM2 (Homo sapiens, UniProt P14618). The assay can be described thus: PKM2 Assay (activation, LDH-coupled, absorbance at 340 nm). Type of assay: biochemical. The essentials: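 Human PKM2 (50 ng/well) was preincubated with compound and coupling mix for 30 min at 4 °C without ADP. Reactions were then started with ADP (0.7 mM) alongside PEP 0.15 mM, NADH 180 μM and LDH, in Tris pH 7.5/KCl/MgCl2/DTT/BSA buffer. A340 was followed at 25 °C and activation reported as AC50.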
Chain of PKM2 (P14618 whole entry): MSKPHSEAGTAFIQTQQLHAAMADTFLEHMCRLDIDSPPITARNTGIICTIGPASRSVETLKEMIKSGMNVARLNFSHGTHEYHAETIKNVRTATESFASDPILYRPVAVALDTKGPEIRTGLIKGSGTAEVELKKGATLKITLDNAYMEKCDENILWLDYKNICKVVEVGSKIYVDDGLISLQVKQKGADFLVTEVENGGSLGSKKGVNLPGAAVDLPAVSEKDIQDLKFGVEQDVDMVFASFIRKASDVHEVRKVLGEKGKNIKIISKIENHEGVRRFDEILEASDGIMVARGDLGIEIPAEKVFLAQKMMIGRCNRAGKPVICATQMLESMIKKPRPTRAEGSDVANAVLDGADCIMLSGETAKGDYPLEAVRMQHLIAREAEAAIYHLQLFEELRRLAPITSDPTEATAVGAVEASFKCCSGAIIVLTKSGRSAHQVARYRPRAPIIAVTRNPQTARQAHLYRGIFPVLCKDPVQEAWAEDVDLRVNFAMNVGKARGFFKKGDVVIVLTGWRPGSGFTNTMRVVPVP

Compound `CC(c1c(F)cccc1F)N1CCN(C(=O)c2ccc(NS(=O)(=O)c3cccc4cccnc34)cc2)[C@H](C)C1` (stereo partly drawn) [Compound 159, N-(4-((2R)-4-(1-(2,6-difluorophenyl)ethyl)-2-methylpiperazine-1-carbonyl)phenyl)quinoline-8-sulfonamide] came in with an AC50 (Table 4) of 100 to 500 nM.

As for `C[C@H]1CN(Cc2cc(F)c(F)c(F)c2)CCN1C(=O)c1ccc(NS(=O)(=O)c2cccc3cccnc23)cc1` [Compound 155, (S)—N-(4-(2-methyl-4-(3,4,5-trifluorobenzyl)piperazine-1-carbonyl)phenyl)quinoline-8-sulfonamide], the AC50 (Table 4) was < 100 nM.

As to `CC(c1ccc(F)c(F)c1F)N1CCN(C(=O)c2ccc(NS(=O)(=O)c3cccc4cccnc34)cc2)[C@H](C)C1` (stereo partly drawn) [Compound 189, N-(4-((2R)-2-methyl-4-(1-(2,3,4-trifluorophenyl)ethyl)piperazine-1-carbonyl)phenyl)quinoline-8-sulfonamide], the half-maximal activity concentration (AC50) (Table 4) was < 100 nM.

In the case of `O=C(c1ccc(NS(=O)(=O)c2cccc3cccnc23)cc1)N1CCN(C2(c3ccccc3)CCC2)CC1` [Compound 408, N-(4-(4-(1-phenylcyclobutyl)piperazine-1-carbonyl)phenyl)quinoline-8-sulfonamide], where the note is “Table 5”, the AC50 was < 100 nM.

For the compound `O=C(c1ccc(NS(=O)(=O)c2cccc3cccnc23)cc1)N1CCN(C(=O)c2ncc[nH]2)CC1` [Compound 354, N-(4-(4-(1H-imidazole-2-carbonyl)piperazine-1-carbonyl)phenyl)quinoline-8-sulfonamide], the half-maximal activity concentration (AC50) (Table 5) is < 100 nM.

In the case of `O=C(c1cnc(NS(=O)(=O)c2cccc3cccnc23)cn1)N1CCN(CC2CC2)CC1` [Compound 451, N-(5-(4-(cyclopropylmethyl)piperazine-1-carbonyl)pyrazin-2-yl)quinoline-8-sulfonamide], the concentration at half-maximal activity (AC50) (Table 5) is > 20000 nM.

`CC(C)OC(=O)N1CCN(C(=O)c2ccc(NS(=O)(=O)c3cccc4cccnc34)cc2)[C@@H](C)C1` [Compound 108, (S)-isopropyl 3-methyl-4-(4-(quinoline-8-sulfonamido)benzoyl)piperazine-1-carboxylate]: the half-maximal activity concentration (AC50) (Table 4) was < 100 nM.

In turn, `O=C(c1ccc(NS(=O)(=O)c2cccc3cccnc23)c(OC(F)(F)F)c1)N1CCN(Cc2cccc(Cl)c2Cl)CC1` [Compound 306, N-(4-(4-(2,3-dichlorobenzyl)piperazine-1-carbonyl)-2-(trifluoromethoxy)phenyl)quinoline-8-sulfonamide] registered a half-maximal activity concentration (AC50) (Table 5) of 500 to 1000 nM.

Take `COc1cc(NS(=O)(=O)c2cccc3cccnc23)ccc1C(=O)N1CCN(C2(c3ccccc3)CC2)CC1` [Compound 393, N-(3-methoxy-4-(4-(1-phenylcyclopropyl)piperazine-1-carbonyl)phenyl)quinoline-8-sulfonamide]: the concentration at half-maximal activity (AC50) (Table 5) is < 100 nM.

With `O=C(OC1CCOCC1)N1CCN(C(=O)c2ccc(NS(=O)(=O)c3cccc4cccnc34)c(OC(F)(F)F)c2)CC1` [Compound 314, tetrahydro-2H-pyran-4-yl-4-(4-(quinoline-8-sulfonamido)-3-(trifluoromethoxy)benzoyl)piperazine-1-carboxylate], the AC50 (Table 5) fell in the range of 1000 to 20000 nM.

In turn, `COc1cc(C(=O)N2CCN(C(=O)c3cscn3)CC2)ccc1NS(=O)(=O)c1cccc2cccnc12` [Compound 322, N-(2-methoxy-4-(4-(thiazole-4-carbonyl)piperazine-1-carbonyl)phenyl)quinoline-8-sulfonamide] showed a concentration at half-maximal activity (AC50) (Table 5) of 100 to 500 nM.

With `COc1cc(C(=O)N2CCN(C(C)(C)c3ccccc3)CC2)ccc1NS(=O)(=O)c1cccc2cccnc12` [Compound 356, N-(2-methoxy-4-(4-(2-phenylpropan-2-yl)piperazine-1-carbonyl)phenyl)quinoline-8-sulfonamide], the AC50 (Table 5) was < 100 nM.

`O=C(c1ccc(NS(=O)(=O)c2cccc3cccnc23)cc1Cl)N1CCN(Cc2ccc(Cl)c(F)c2)CC1` [Compound 432, N-(3-chloro-4-(4-(4-chloro-3-fluorobenzyl)piperazine-1-carbonyl)phenyl)quinoline-8-sulfonamide]: the concentration at half-maximal activity (AC50) (Table 5) was 100 to 500 nM.

In turn, `CC[C@H]1CN(Cc2ccc(F)cc2)CCN1C(=O)c1ccc(NS(=O)(=O)c2cccc3cccnc23)cc1` [Compound 134, (S)—N-(4-(2-ethyl-4-(4-fluorobenzyl)piperazine-1-carbonyl)phenyl)quinoline-8-sulfonamide] registered an AC50 (Table 4) of 100 to 500 nM.

Where the note is “Table 4”, `C[C@H]1CN(C[C@H]2CCOC2)CCN1C(=O)c1ccc(NS(=O)(=O)c2cccc3cccnc23)cc1` [Compound 210] yielded an AC50 of 100 to 500 nM.

With `O=C(c1ccc(NS(=O)(=O)c2cccc3cccnc23)c(OC(F)(F)F)c1)N1CCN(CCCc2ccccc2)CC1` [Compound 389], the concentration at half-maximal activity (AC50) (Table 5) was in the range of 500 to 1000 nM.

Turning to `CCOC(=O)N1CCN(C(=O)c2ccc(NS(=O)(=O)c3cccc4cccnc34)cn2)CC1` [Compound 447, Ethyl 4-(5-(quinoline-8-sulfonamido)picolinoyl)piperazine-1-carboxylate], the AC50 (Table 5) was 1000 to 20000 nM.

As for `O=C(c1ccc(NS(=O)(=O)c2cccc3cccnc23)cc1)N1CCN(Cc2cc(F)cc(F)c2)CC1` [Compound 394, N-(4-(4-(3,5-difluorobenzyl)piperazine-1-carbonyl)phenyl)quinoline-8-sulfonamide], the AC50 (Table 5) was < 100 nM.

`O=C(c1ccc(NS(=O)(=O)c2cccc3cccnc23)cc1)N1CCN(C(=O)C2CCCCO2)CC1` (centres unmarked) [Compound 430, N-(4-(4-(tetrahydro-2H-pyran-2-carbonyl)piperazine-1-carbonyl)phenyl)quinoline-8-sulfonamide]: where the note is “Table 5”, the AC50 is < 100 nM.

In turn, `CC1CN(CC2CCOC2)CC(C)N1C(=O)c1ccc(NS(=O)(=O)c2cccc3cccnc23)cc1` (centres unmarked) [Compound 204, N-(4-(2,6-dimethyl-4-((tetrahydrofuran-3-yl)methyl)piperazine-1-carbonyl)phenyl)quinoline-8-sulfonamide] returned an AC50 (Table 4) of 500 to 1000 nM.

With `CC(C)(C1CC1)N1CCN(C(=O)c2ccc(NS(=O)(=O)c3cccc4cccnc34)cc2)CC1` [Compound 438, N-(4-(4-(2-cyclopropylpropan-2-yl)piperazine-1-carbonyl)phenyl)quinoline-8-sulfonamide], the half-maximal activity concentration (AC50) (Table 5) is < 100 nM.

Regarding `CC(c1cccnc1)N1CCN(C(=O)c2ccc(NS(=O)(=O)c3cccc4cccnc34)cc2)CC1` (centres unmarked) [Compound 370, N-(4-(4-(1-(pyridin-3-yl)ethyl)piperazine-1-carbonyl)phenyl)quinoline-8-sulfonamide], the half-maximal activity concentration (AC50) (Table 5) is < 100 nM.

As to `C[C@@H]1CN(C(=O)OCC2CC2)CCN1C(=O)c1ccc(NS(=O)(=O)c2cccc3cccnc23)cc1` [Compound 112, (R)-Cyclopropylmethyl 3-methyl-4-(4-(quinoline-8-sulfonamido)benzoyl)piperazine-1-carboxylate], the AC50 (Table 4) is < 100 nM.

For the compound `O=C(c1ccc(NS(=O)(=O)c2cccc3cccnc23)cc1)N1C2CCC1CN(CC1CC1)C2` [Compound 228, N-(4-(3-(cyclopropylmethyl)-3,8-diazabicyclo[3.2.1]octane-8-carbonyl)phenyl)quinoline-8-sulfonamide], the concentration at half-maximal activity (AC50) (Table 4) lay within 100 to 500 nM.

Regarding `C[C@H]1CN(CC2CCOC2)CCN1C(=O)c1ccc(NS(=O)(=O)c2cccc3cccnc23)cc1` (stereo partly drawn) [Compound 139, N-(4-((2S)-2-methyl-4-((tetrahydrofuran-3-yl)methyl)piperazine-1-carbonyl)phenyl)quinoline-8-sulfonamide], under “Table 4”, the AC50 lay in the range of 100 to 500 nM.

For the compound `O=C(OCC1CCCO1)N1CCN(C(=O)c2ccc(NS(=O)(=O)c3cccc4cccnc34)c(OC(F)(F)F)c2)CC1` (centres unmarked) [Compound 316, (tetrahydrofuran-2-yl)methyl-4-(4-(quinoline-8-sulfonamido)-3-(trifluoromethoxy)benzoyl)piperazine-1-carboxylate], for the setting “Table 5”, the AC50 was in the range of 1000 to 20000 nM.

In the case of `CC(c1ccccc1F)N1CCN(C(=O)c2ccc(NS(=O)(=O)c3cccc4cccnc34)cc2)[C@H](C)C1` (some centres unmarked) [Compound 183], the half-maximal activity concentration (AC50) (Table 4) was < 100 nM.

For the compound `COc1cc(C(=O)N2CCN(C(=O)c3cccc(OC)c3F)CC2)ccc1NS(=O)(=O)c1cccc2cccnc12` [Compound 320, N-(4-(4-(2-fluoro-3-methoxybenzoyl)piperazine-1-carbonyl)-2-methoxyphenyl)quinoline-8-sulfonamide], for the setting “Table 5”, the AC50 is 100 to 500 nM.

With `CC1CN(Cc2ccc(F)cc2)CC(C)N1C(=O)c1ccc(NS(=O)(=O)c2cccc3cccnc23)cc1` (centres unmarked) [Compound 196, N-(4-(4-(4-fluorobenzyl)-2,6-dimethylpiperazine-1-carbonyl)phenyl)quinoline-8-sulfonamide], the concentration at half-maximal activity (AC50) (Table 4) is < 100 nM.

`O=C(c1ccc(NS(=O)(=O)c2cccc3cccnc23)cc1)N1CCN(CC2CC2)C[C@@H]1c1ccccc1` [Compound 180]: the half-maximal activity concentration (AC50) (Table 4) was in the range of 100 to 500 nM.

Where the note is “Table 5”, `O=C(c1ccc(NS(=O)(=O)c2cccc3cccnc23)cc1)N1CCN(Cc2c[nH]cn2)CC1` [Compound 386, N-(4-(4-((1H-imidazol-4-yl)methyl)piperazine-1-carbonyl)phenyl)quinoline-8-sulfonamide] displayed an AC50 of 100 to 500 nM.

`C[C@@H]1CN(C(=O)OCCC2CCCCC2)CCN1C(=O)c1ccc(NS(=O)(=O)c2cccc3cccnc23)cc1` [Compound 121, (R)-2-Cyclohexylethyl 3-methyl-4-(4-(quinoline-8-sulfonamido)benzoyl)piperazine-1-carboxylate] displayed an AC50 (Table 4) of 100 to 500 nM.

Under “Table 5”, `COc1cc(C(=O)N2CCN(C3(c4ccccc4)CC3)CC2)ccc1NS(=O)(=O)c1cccc2cccnc12` [Compound 352, N-(2-methoxy-4-(4-(1-phenylcyclopropyl)piperazine-1-carbonyl)phenyl)quinoline-8-sulfonamide] registered an AC50 of 100 to 500 nM.

Turning to `O=C(OCCC1CCCC1)N1CCN(C(=O)c2ccc(NS(=O)(=O)c3cccc4cccnc34)c(OC(F)(F)F)c2)CC1` [Compound 312, 2-cyclopentylethyl-4-(4-(quinoline-8-sulfonamido)-3-(trifluoromethoxy)benzoyl)piperazine-1-carboxylate], under “Table 5”, the AC50 was in the range of 500 to 1000 nM.

`O=C(c1ccc(NS(=O)(=O)c2cccc3cccnc23)c(OC(F)(F)F)c1)N1CCN(Cc2ncc[nH]2)CC1` [Compound 380, N-(4-(4-((1H-imidazol-2-yl)methyl)piperazine-1-carbonyl)-2-(trifluoromethoxy)phenyl)quinoline-8-sulfonamide] showed an AC50 (Table 5) of 100 to 500 nM.

Values taken from patent US8889667B2 (Agios Pharmaceuticals, Inc, priority 2010, dated 2014).
